This note sets out measurements from PubChem BioAssay (NCI).

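Grown in 96-well plates, cells were treated for 48 hours with each compound at five concentrations. Insufficient inhibition: endpoint recorded as highest concentration tested. Definition used: TGI = concentration required for complete inhibition of growth.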 A value given as a limit tells only on which side of the number the result lay.

One assay concerns UO-31 renal. The assay is described as follows: inhibition of tumour cell growth, NCI panel, 48 h.
Take `CC1(C)CCCC2OC2CCC(C)(C)C1=O` (configuration not stated): the TGI is above 100 µM.

`COc1ccc2c(c1)/C(=C\c1c(Cl)nc3sc(C)cn13)C(=O)N2` yielded a TGI of 19 µM.

Take `O=C(/C=C/c1ccc2c(c1)OCO2)CC(=O)C(=O)c1c[nH]c2ccccc12`: the TGI turned out to be 64.1 µM.

Consider `O=c1[nH]c(=O)n(C2OC(CO)C(O)C2O)c2nc(-c3ccc(-c4ccccc4)cc3)cnc12` (configuration not stated), for which the TGI is above 100 µM.

With `CC1=NN(c2cccc(Cl)c2)C2(SCC(=O)N2c2nc3ccccc3s2)/C1=C\c1ccccc1O` (configuration not stated), the TGI was 38.5 µM.

`CCCCCCOc1ccc(C(=O)NOC)cc1` registered a TGI above 100 µM.

Take `Cc1c(S(=O)(=O)c2ccccc2)c(N)n(CCN(C)C)c1C`: the TGI was above 100 µM.

With `N=C(N)SCc1ccc2c(c1)Sc1ccccc1O2`, the TGI worked out at 10.6 µM.

As to `CC(=O)Nc1nc(C#N)[nH]c1C#N`, the TGI was above 100 µM.

In turn, `CS(=O)c1ncc2c(n1)-c1ccccc1OC2` (configuration not stated) showed a TGI above 100 µM.

Take `CCOC(=O)Cn1c(=O)c2nc(SC)sc2n(-c2ccccc2)c1=O`: the TGI is above 100 µM.

As for `COc1ccc(-c2nc(SCC(=O)N/N=C/c3ccc(N(C)C)cc3)[nH]c2-c2ccc(OC)cc2)cc1`, the TGI was above 100 µM.

On to `CC1=C[C@@H]2Cc3nc4cc(Cl)ccc4c(N)c3[C@H](C1)C2`, for which the TGI is 17.7 µM.

With `c1c[nH]c(-c2ccc(-c3ccc[nH]3)c3nsnc23)c1`, the TGI is above 74.7 µM.

The compound `CS(=O)(=O)OCC(CCl)(CCl)CCl` came in with a TGI above 100 µM.

Regarding `CSC(=S)N(C)C`, the TGI was above 100 µM.

In turn, `CCN(CC)CCn1c(=O)c2cccnc2n2c3c(=O)n(C)c(=O)n(C)c3nc12` returned a TGI above 100 µM.

The compound `O=c1[nH]c(Nc2nc3ccccc3[nH]2)nc(O)c1-c1ccccc1` yielded a TGI above 100 µM.

Regarding `CCOC(=O)c1ccc(NCC#CCN2CCOCC2)cc1`, the TGI was above 100 µM.

Compound `CC1(C)C2CCC1(C)[C@H](n1c(=O)n([C@@H]3CC4CCC3(C)C4(C)C)c(=O)n([C@@H]3CC4CCC3(C)C4(C)C)c1=O)C2` displayed a TGI above 100 µM.

In turn, `COC(=O)C1CCC(=O)N1C(c1ccc(OC)cc1)c1ccc2c(c1)OCO2` (configuration not stated) showed a TGI above 100 µM.

For another assay, the system named is HOP-92 NSCLC. Put plainly: inhibition of tumour cell growth, NCI panel, 48 h.
Turning to `CC1(C)CCCC2OC2CCC(C)(C)C1=O` (configuration not stated), the TGI is above 100 µM.

The compound `COc1ccc2c(c1)/C(=C\c1c(Cl)nc3sc(C)cn13)C(=O)N2` had a TGI of 23.1 µM.

Compound `O=C(/C=C/c1ccc2c(c1)OCO2)CC(=O)C(=O)c1c[nH]c2ccccc12` showed a TGI above 100 µM.

`O=c1[nH]c(=O)n(C2OC(CO)C(O)C2O)c2nc(-c3ccc(-c4ccccc4)cc3)cnc12` (configuration not stated) returned a TGI above 100 µM.

`CC1=NN(c2cccc(Cl)c2)C2(SCC(=O)N2c2nc3ccccc3s2)/C1=C\c1ccccc1O` (configuration not stated) came in with a TGI of 46.1 µM.

For `CCCCCCOc1ccc(C(=O)NOC)cc1`, the TGI is above 100 µM.

For `Cc1c(S(=O)(=O)c2ccccc2)c(N)n(CCN(C)C)c1C`, the TGI is above 100 µM.

`N=C(N)SCc1ccc2c(c1)Sc1ccccc1O2` registered a TGI of 26.8 µM.

In the case of `CC(=O)Nc1nc(C#N)[nH]c1C#N`, the TGI is above 100 µM.

As to `CS(=O)c1ncc2c(n1)-c1ccccc1OC2` (configuration not stated), the TGI was above 100 µM.

Turning to `CCOC(=O)Cn1c(=O)c2nc(SC)sc2n(-c2ccccc2)c1=O`, the TGI is above 100 µM.

`COc1ccc(-c2nc(SCC(=O)N/N=C/c3ccc(N(C)C)cc3)[nH]c2-c2ccc(OC)cc2)cc1` showed a TGI above 100 µM.

The compound `CC1=C[C@@H]2Cc3nc4cc(Cl)ccc4c(N)c3[C@H](C1)C2` gave a TGI of 10.8 µM.

Take `c1c[nH]c(-c2ccc(-c3ccc[nH]3)c3nsnc23)c1`: the TGI was above 100 µM.

In turn, `CS(=O)(=O)OCC(CCl)(CCl)CCl` returned a TGI above 100 µM.

Compound `CSC(=S)N(C)C` showed a TGI above 100 µM.

Regarding `CCN(CC)CCn1c(=O)c2cccnc2n2c3c(=O)n(C)c(=O)n(C)c3nc12`, the TGI is above 100 µM.

In the case of `O=c1[nH]c(Nc2nc3ccccc3[nH]2)nc(O)c1-c1ccccc1`, the TGI was above 100 µM.

On to `CCOC(=O)c1ccc(NCC#CCN2CCOCC2)cc1`, for which the TGI was above 100 µM.

As to `CC1(C)C2CCC1(C)[C@H](n1c(=O)n([C@@H]3CC4CCC3(C)C4(C)C)c(=O)n([C@@H]3CC4CCC3(C)C4(C)C)c1=O)C2`, the TGI is above 100 µM.

In turn, `COC(=O)C1CCC(=O)N1C(c1ccc(OC)cc1)c1ccc2c(c1)OCO2` (configuration not stated) came in with a TGI above 100 µM.

The next assay deals with MDA-N. The assay is described as follows: inhibition of tumour cell growth, NCI panel, 48 h.
As to `CC1(C)CCCC2OC2CCC(C)(C)C1=O` (configuration not stated), the TGI is above 100 µM.

Take `COc1ccc2c(c1)/C(=C\c1c(Cl)nc3sc(C)cn13)C(=O)N2`: the TGI was 2.04 µM.

Compound `O=C(/C=C/c1ccc2c(c1)OCO2)CC(=O)C(=O)c1c[nH]c2ccccc12` yielded a TGI of 91.3 µM.

The compound `O=c1[nH]c(=O)n(C2OC(CO)C(O)C2O)c2nc(-c3ccc(-c4ccccc4)cc3)cnc12` (configuration not stated) returned a TGI above 100 µM.

For `CC1=NN(c2cccc(Cl)c2)C2(SCC(=O)N2c2nc3ccccc3s2)/C1=C\c1ccccc1O` (configuration not stated), the TGI was 53.4 µM.

As to `CCCCCCOc1ccc(C(=O)NOC)cc1`, the TGI was above 100 µM.

Take `Cc1c(S(=O)(=O)c2ccccc2)c(N)n(CCN(C)C)c1C`: the TGI was above 100 µM.

In turn, `N=C(N)SCc1ccc2c(c1)Sc1ccccc1O2` registered a TGI of 19 µM.

`CC(=O)Nc1nc(C#N)[nH]c1C#N` showed a TGI above 100 µM.

Turning to `CS(=O)c1ncc2c(n1)-c1ccccc1OC2` (configuration not stated), the TGI is above 100 µM.

Compound `CCOC(=O)Cn1c(=O)c2nc(SC)sc2n(-c2ccccc2)c1=O` gave a TGI above 100 µM.

Turning to `COc1ccc(-c2nc(SCC(=O)N/N=C/c3ccc(N(C)C)cc3)[nH]c2-c2ccc(OC)cc2)cc1`, the TGI was above 100 µM.

`CC1=C[C@@H]2Cc3nc4cc(Cl)ccc4c(N)c3[C@H](C1)C2`: the TGI was 31.5 µM.

Take `c1c[nH]c(-c2ccc(-c3ccc[nH]3)c3nsnc23)c1`: the TGI is above 100 µM.

As for `CS(=O)(=O)OCC(CCl)(CCl)CCl`, the TGI was above 100 µM.

With `CSC(=S)N(C)C`, the TGI was above 100 µM.

Compound `CCN(CC)CCn1c(=O)c2cccnc2n2c3c(=O)n(C)c(=O)n(C)c3nc12` came in with a TGI above 100 µM.

In turn, `O=c1[nH]c(Nc2nc3ccccc3[nH]2)nc(O)c1-c1ccccc1` registered a TGI above 100 µM.

As to `CCOC(=O)c1ccc(NCC#CCN2CCOCC2)cc1`, the TGI is above 100 µM.

The compound `CC1(C)C2CCC1(C)[C@H](n1c(=O)n([C@@H]3CC4CCC3(C)C4(C)C)c(=O)n([C@@H]3CC4CCC3(C)C4(C)C)c1=O)C2` had a TGI above 100 µM.

Regarding `COC(=O)C1CCC(=O)N1C(c1ccc(OC)cc1)c1ccc2c(c1)OCO2` (configuration not stated), the TGI worked out at 27.3 µM.

In the next assay the test system is ACHN renal. The assay is described as follows: inhibition of tumour cell growth, NCI panel, 48 h.
As to `CC1(C)CCCC2OC2CCC(C)(C)C1=O` (configuration not stated), the TGI is above 100 µM.

For `COc1ccc2c(c1)/C(=C\c1c(Cl)nc3sc(C)cn13)C(=O)N2`, the TGI amounted to 20.1 µM.

`O=C(/C=C/c1ccc2c(c1)OCO2)CC(=O)C(=O)c1c[nH]c2ccccc12` came in with a TGI above 100 µM.

As to `O=c1[nH]c(=O)n(C2OC(CO)C(O)C2O)c2nc(-c3ccc(-c4ccccc4)cc3)cnc12` (configuration not stated), the TGI is above 100 µM.

With `CC1=NN(c2cccc(Cl)c2)C2(SCC(=O)N2c2nc3ccccc3s2)/C1=C\c1ccccc1O` (configuration not stated), the TGI amounted to 49 µM.

For the compound `CCCCCCOc1ccc(C(=O)NOC)cc1`, the TGI was above 100 µM.

The compound `Cc1c(S(=O)(=O)c2ccccc2)c(N)n(CCN(C)C)c1C` returned a TGI above 100 µM.

For `N=C(N)SCc1ccc2c(c1)Sc1ccccc1O2`, the TGI came out at 16.9 µM.

As to `CC(=O)Nc1nc(C#N)[nH]c1C#N`, the TGI is above 100 µM.

As to `CS(=O)c1ncc2c(n1)-c1ccccc1OC2` (configuration not stated), the TGI is above 100 µM.

Consider `CCOC(=O)Cn1c(=O)c2nc(SC)sc2n(-c2ccccc2)c1=O`, for which the TGI is above 100 µM.

For the compound `COc1ccc(-c2nc(SCC(=O)N/N=C/c3ccc(N(C)C)cc3)[nH]c2-c2ccc(OC)cc2)cc1`, the TGI was above 100 µM.

Regarding `CC1=C[C@@H]2Cc3nc4cc(Cl)ccc4c(N)c3[C@H](C1)C2`, the TGI was determined as 23.1 µM.

`c1c[nH]c(-c2ccc(-c3ccc[nH]3)c3nsnc23)c1`: the TGI was above 86.8 µM.

The compound `CS(=O)(=O)OCC(CCl)(CCl)CCl` had a TGI above 100 µM.

`CCN(CC)CCn1c(=O)c2cccnc2n2c3c(=O)n(C)c(=O)n(C)c3nc12` came in with a TGI above 100 µM.

`O=c1[nH]c(Nc2nc3ccccc3[nH]2)nc(O)c1-c1ccccc1` showed a TGI above 100 µM.

Regarding `CCOC(=O)c1ccc(NCC#CCN2CCOCC2)cc1`, the TGI is above 100 µM.

Regarding `CC1(C)C2CCC1(C)[C@H](n1c(=O)n([C@@H]3CC4CCC3(C)C4(C)C)c(=O)n([C@@H]3CC4CCC3(C)C4(C)C)c1=O)C2`, the TGI was above 100 µM.

`COC(=O)C1CCC(=O)N1C(c1ccc(OC)cc1)c1ccc2c(c1)OCO2` (configuration not stated) had a TGI above 100 µM.

In the next assay the test system is SN12C renal. Put plainly: inhibition of tumour cell growth, NCI panel, 48 h.
`CC1(C)CCCC2OC2CCC(C)(C)C1=O` (configuration not stated) came in with a TGI above 100 µM.

In turn, `COc1ccc2c(c1)/C(=C\c1c(Cl)nc3sc(C)cn13)C(=O)N2` yielded a TGI of 21.9 µM.

`O=C(/C=C/c1ccc2c(c1)OCO2)CC(=O)C(=O)c1c[nH]c2ccccc12` gave a TGI above 100 µM.

For `O=c1[nH]c(=O)n(C2OC(CO)C(O)C2O)c2nc(-c3ccc(-c4ccccc4)cc3)cnc12` (configuration not stated), the TGI was above 100 µM.

Compound `CCCCCCOc1ccc(C(=O)NOC)cc1` had a TGI above 100 µM.

In turn, `Cc1c(S(=O)(=O)c2ccccc2)c(N)n(CCN(C)C)c1C` yielded a TGI above 100 µM.

Compound `N=C(N)SCc1ccc2c(c1)Sc1ccccc1O2` showed a TGI of 46.9 µM.

Compound `CC(=O)Nc1nc(C#N)[nH]c1C#N` gave a TGI above 100 µM.

Turning to `CS(=O)c1ncc2c(n1)-c1ccccc1OC2` (configuration not stated), the TGI was above 100 µM.

The compound `CCOC(=O)Cn1c(=O)c2nc(SC)sc2n(-c2ccccc2)c1=O` yielded a TGI above 100 µM.

In the case of `COc1ccc(-c2nc(SCC(=O)N/N=C/c3ccc(N(C)C)cc3)[nH]c2-c2ccc(OC)cc2)cc1`, the TGI was above 100 µM.

As to `CC1=C[C@@H]2Cc3nc4cc(Cl)ccc4c(N)c3[C@H](C1)C2`, the TGI was determined as 29.6 µM.

The compound `c1c[nH]c(-c2ccc(-c3ccc[nH]3)c3nsnc23)c1` had a TGI above 100 µM.

As to `CS(=O)(=O)OCC(CCl)(CCl)CCl`, the TGI was above 100 µM.

For the compound `CSC(=S)N(C)C`, the TGI is above 100 µM.

As for `CCN(CC)CCn1c(=O)c2cccnc2n2c3c(=O)n(C)c(=O)n(C)c3nc12`, the TGI was above 100 µM.

The compound `O=c1[nH]c(Nc2nc3ccccc3[nH]2)nc(O)c1-c1ccccc1` had a TGI above 100 µM.

`CCOC(=O)c1ccc(NCC#CCN2CCOCC2)cc1` displayed a TGI above 100 µM.

Take `COC(=O)C1CCC(=O)N1C(c1ccc(OC)cc1)c1ccc2c(c1)OCO2` (configuration not stated): the TGI was above 100 µM.
